Laboratory results as given in article PMC4216756 (Clinical cancer research : an official journal of the …, 2014).
Several values for one entry are separate records, joined by “and”; a condition that tells them apart may be missing. Identical values can stand only once. Like-named read-outs stand apart in the source and are kept apart here.

Legend:
[1] = tested on: Thymic carcinoma; assay: Phase I/II efficacy; type: in vivo, human; conditions: belinostat + PAC
[2] = tested on: γ-H2AX expression on CD3+ and CD14+ cells; assay: DNA damage: γ-H2AX expression in PBMC; type: in vivo, human
[3] = tested on: patients with advanced thymic epithelial tumors; assay: Phase I dose escalation; type: in vivo, human
[4] = tested on: thymic epithelial tumors; assay: Phase I/II efficacy; type: in vivo, human
[5] = tested on: protein acetylation, tubulin acetylation, p21 in PBMC; assay: Protein/tubulin acetylation and p21 in PBMC by multiparametric flow cytometry; type: in vivo, human
[6] = Plasma pharmacokinetics of belinostat, 48-hr CIVI, cycle 1; type: in vivo, human; conditions: for clearance / half-life: human, plasma, intravenous; for half-life: cycle 1, n=25
[7] = tested on: Regulatory T cells and CD8+ T cells; assay: T cell subsets and immune markers in PBMC by flow cytometry; type: in vivo, human
[8] = tested on: Thymoma; assay: Phase I/II efficacy; type: in vivo, human; conditions: belinostat + PAC
[9] = cited from earlier work
[10] = tested on: TETs; conditions: single-agent belinostat, cited from earlier work
[11] = tested on: patients with advanced thymic epithelial tumors; assay: Safety: treatment-related adverse events; type: in vivo, human
[12] = 23 evaluable patients treated at dose level 1
[13] = belinostat + PAC, Total, 25 evaluable patients
[14] = following belinostat plus chemotherapy, p<0.0001
[15] = Dose level 1 (n=24), belinostat 1000 mg/m^2 + PAC
[16] = Dose level 2 (n=2), belinostat 2000 mg/m^2 + PAC

SMILES: O=C(/C=C/c1cccc(S(=O)(=O)Nc2ccccc2)c1)NO [belinostat, N-hydroxy-3-(phenylsulphamoylphenyl) acrylamide]
- Median overall survival [1]: 21.4 months
- Median progression-free survival [1]: 7.2 months
- Complete response ([1]; 14 evaluable patients): 0 n (%)
- Disease control rate (95% confidence interval) ([1]; 14 evaluable patients): 93 (66.1–99.8) %
- Objective Response Rate (95% confidence interval) ([1]; 14 evaluable patients): 21 (4.7–50.8) %
- Partial Response ([1]; 14 evaluable patients): 3 (21) n (%)
- Progressive Disease ([1]; 14 evaluable patients): 1 (7) n (%)
- γ-H2AX expression on CD3+ cells ([2]; after belinostat alone, p=0.033): increased
- γ-H2AX expression on CD14+ cells ([2]; after belinostat alone, p=0.41): did not increase significantly
- γ-H2AX expression on CD14+ cells ([2]; after belinostat plus chemotherapy, p=0.012): increased
- γ-H2AX expression on CD3+ cells ([2]; following belinostat plus chemotherapy, p=0.01): increased
- Dose-limiting toxicities ([3]; 2000 mg/m^2 belinostat (dose level 2) with PAC, in two patients): grade 3 nausea and diarrhea and grade 4 neutropenia and thrombocytopenia
- Maximum-tolerated dose (MTD) of belinostat ([3]; CIVI over 48 hours with PAC, 3-week cycles): 1000 mg/m^2
- Patients who underwent R0 or R1 resection ([4]; 9 of 23 assessed after at least 4 cycles of belinostat + PAC): 39%
- Patients with PD [4, 12]: 4%
- Patients with PRs [4, 12]: 30%
- Patients with CR ([4]; 23 evaluable patients treated at dose level 1 (belinostat 1000 mg/m^2 + PAC)): 4%
- Patients with no evidence of disease at the time of reporting ([4]; Six of 23, after multimodality therapy): 26%
- Median progression-free survival ([4]; belinostat + PAC, Total): 9 months and 9.0 months
- Complete response [4, 13]: 1 (4) n (%)
- Disease control rate (95% confidence interval) [4, 13]: 96 (79.7 –99.9) %
- Objective Response Rate (95% confidence interval) [4, 13]: 40 (21.1 –61.3) %
- Partial Response [4, 13]: 9 (36) n (%)
- Progressive Disease [4, 13]: 1 (4) n (%)
- Stable Disease [4, 13]: 14 (56) n (%)
- Median overall survival ([4]; belinostat + PAC, Total, median potential follow up 20.5 months): 28.5 months
- Patients with increase in total protein hyperacetylation of CD3+ cells ([5]; 21 of 23 patients, after belinostat): 91%
- Increase in total protein hyperacetylation of CD3+ cells, median ([5]; after belinostat): 2.5 fold
- p21 expression in CD14+ cells ([5]; after belinostat alone, p=0.019): increased
- PBMC acetylated tubulin ([5]; after belinostat, p<0.0001): increased significantly
- Total protein hyperacetylation of CD3+ cells ([5]; after belinostat, p<0.0001): increased significantly
- Total protein hyperacetylation of CD14+ cells ([5]; after belinostat, p= 0.026): increased only marginally
- p21 expression in CD14+ cells [5, 14]: increased
- PBMC acetylated tubulin ([5]; following belinostat plus chemotherapy, p=0.0001): increased significantly
- Plasma concentration of belinostat during the 48-hour infusion ([6]; 250 mg/m^2 per 12-h infusion, with PAC): around 1 μM
- clearance ([6]; Clearance, range, 48-hr CIVI, cycle 1, all patients): 683 to 13200 mL/min
- clearance ([6]; Clearance, range, after excluding outlier patient): 683 to 3350 mL/min
- half-life ([6]; Half-life, range, 48-hr CIVI): 12 to 54.6 min
- clearance ([6]; Mean clearance, 48-hr CIVI, cycle 1, all patients): 2220 mL/min
- half-life ([6]; Mean half-life, 48-hr CIVI): 28.2 min
- clearance ([6]; Total systemic clearance, the only patient with high serum creatinine (1.43 mg/dL)): 1770 mL/min
- Differences in CMAX, AUCINF, clearance and half-life between genders and races ([6]; in vivo): no statistically significant differences
- Fraction of CTLA4-expressing Tregs ([7]; after belinostat alone, p=0.0078): increased significantly
- Fraction of CTLA4-expressing Tregs ([7]; after belinostat plus chemotherapy, p<0.0001): increased significantly
- TIM3+ CD8+T cells ([7]; following belinostat alone vs baseline, p < 0.0001): decreased significantly
- PD-1+ CD8+ T cells ([7]; following belinostat alone vs baseline, p=0.01): decreased significantly
- Number of Tregs ([7]; following belinostat alone, p=0.0009): decreased significantly
- Number of Tregs [7, 14]: decreased significantly
- TIM3+ CD8+T cells ([7]; following belinostat with chemotherapy vs baseline, p <0.0001): decreased significantly
- Median progression-free survival ([7]; patients with greater decline in Tregs post-combination therapy): not reached
- Median progression-free survival ([7]; patients with greater decline in post-combination therapy TIM3+ CD8+T cells): not reached
- Median OS ([7]; patients with higher pre-treatment CTLA4-expressing Tregs): 18.8 months
- Median progression-free survival ([7]; patients with lesser decreases in TIM3+ CD8+T cells): 7.8 months
- Median OS ([7]; patients with lower pre-treatment CTLA4-expressing Tregs): 37.5 months
- Median DOR [8]: not reached
- Median overall survival [8]: Not reached
- Median progression-free survival [8]: Not reached
- Complete response ([8]; 11 evaluable patients): 1 (9) n (%)
- Disease control rate (95% confidence interval) ([8]; 11 evaluable patients): 100 (71.5–100.0) %
- Objective Response Rate (95% confidence interval) ([8]; 11 evaluable patients): 64 (30.8–89.1) %
- Partial Response ([8]; 11 evaluable patients): 6 (55) n (%)
- Progressive Disease ([8]; 11 evaluable patients): 0 n (%)
- Stable Disease ([8]; 11 evaluable patients): 4 (36) n (%)
- Elimination half-life ([9]; administered IV with paclitaxel and carboplatin): 102 min
- Elimination half-life ([9]; administration over 30 minutes): 31.2 to 32.4 min
- Elimination half-life ([9]; orally alone): 114 min
- Patients with stable disease ([10]; of 41 patients): 25 patients
- Median overall survival ([10]; overall population): 19.1 months
- Median time to progression ([10]; overall population): 5.8 months
- Responses in patients with thymic carcinoma [10]: no responses
- Alanine aminotransferase increased, Grade 3/4 (%) ([11]; All dose levels (n= 26)): 4 (15) n (%)
- Aspartate aminotransferase increased, Grade 3/4 (%) ([11]; All dose levels (n= 26)): 6 (23) n (%)
- Atrial fibrillation, Grade 3/4 (%) ([11]; All dose levels (n= 26)): 1 (4) n (%)
- Ejection fraction decreased, Grade 3/4 (%) ([11]; All dose levels (n= 26)): 1(4) n (%)
- Electrocardiogram QT corrected interval prolonged, Grade 3/4 (%) ([11]; All dose levels (n= 26)): 1(4) n (%)
- Enterocolitis infectious, Grade 3/4 (%) ([11]; All dose levels (n= 26)): 2(8) n (%)
- Febrile neutropenia, Grade 3/4 (%) ([11]; All dose levels (n= 26)): 3(12) n (%)
- Hearing impaired, Grade 3/4 (%) ([11]; All dose levels (n= 26)): 1(4) n (%)
- Hypermagnesemia, Grade 3/4 (%) ([11]; All dose levels (n= 26)): 3 (12) n (%)
- Hypoalbuminemia, Grade 3/4 (%) ([11]; All dose levels (n= 26)): 2(8) n (%)
- Hypocalcemia, Grade 3/4 (%) ([11]; All dose levels (n= 26)): 2(8) n (%)
- Hypokalemia, Grade 3/4 (%) ([11]; All dose levels (n= 26)): 4(15) n (%)
- Hypomagnesemia, Grade 3/4 (%) ([11]; All dose levels (n= 26)): 1(4) n (%)
- Hyponatremia, Grade 3/4 (%) ([11]; All dose levels (n= 26)): 1(4) n (%)
- Hypophosphatemia, Grade 3/4 (%) ([11]; All dose levels (n= 26)): 6(23) n (%)
- Limb edema, Grade 3/4 (%) ([11]; All dose levels (n= 26)): 1 (4) n (%)
- Lung infection, Grade 3/4 (%) ([11]; All dose levels (n= 26)): 2(8) n (%)
- Lymphocyte count decreased, Grade 3/4 (%) ([11]; All dose levels (n= 26)): 26 (100) n (%)
- Neutrophil count decreased, Grade 3/4 (%) ([11]; All dose levels (n= 26)): 21 (81) n (%)
- Non-cardiac chest pain, Grade 3/4 (%) ([11]; All dose levels (n= 26)): 1(4) n (%)
- Pain in extremity, Grade 3/4 (%) ([11]; All dose levels (n= 26)): 1(4) n (%)
- Platelet count decreased, Grade 3/4 (%) ([11]; All dose levels (n= 26)): 12 (46) n (%)
- Thromboembolic event, Grade 3/4 (%) ([11]; All dose levels (n= 26)): 3(12) n (%)
- Tumor lysis syndrome, Grade 3/4 (%) ([11]; All dose levels (n= 26)): 1(4) n (%)
- Urinary tract infection, Grade 3/4 (%) ([11]; All dose levels (n= 26)): 1(4) n (%)
- White blood cell decreased, Grade 3/4 (%) ([11]; All dose levels (n= 26)): 24 (92) n (%)
- Alanine aminotransferase increased, Grade 3/4 [11, 15]: 3
- Aspartate aminotransferase increased, Grade 3/4 [11, 15]: 4
- Ejection fraction decreased, Grade 3/4 [11, 15]: 1
- Electrocardiogram QT corrected interval prolonged, Grade 3/4 [11, 15]: 1
- Enterocolitis infectious, Grade 3/4 [11, 15]: 1
- Febrile neutropenia, Grade 3/4 [11, 15]: 3
- Hearing impaired, Grade 3/4 [11, 15]: 1
- Hypermagnesemia, Grade 3/4 [11, 15]: 3
- Hypoalbuminemia, Grade 3/4 [11, 15]: 1
- Hypomagnesemia, Grade 3/4 [11, 15]: 1
- Hypophosphatemia, Grade 3/4 [11, 15]: 4
- Lung infection, Grade 3/4 [11, 15]: 2
- Lymphocyte count decreased, Grade 3/4 [11, 15]: 24
- Neutrophil count decreased, Grade 3/4 [11, 15]: 19
- Non-cardiac chest pain, Grade 3/4 [11, 15]: 1
- Pain in extremity, Grade 3/4 [11, 15]: 1
- Platelet count decreased, Grade 3/4 [11, 15]: 10
- Thromboembolic event, Grade 3/4 [11, 15]: 3
- Urinary tract infection, Grade 3/4 [11, 15]: 1
- White blood cell decreased, Grade 3/4 [11, 15]: 22
- Alanine aminotransferase increased, Grade 3/4 [11, 16]: 1
- Aspartate aminotransferase increased, Grade 3/4 [11, 16]: 2
- Atrial fibrillation, Grade 3/4 [11, 16]: 1
- Enterocolitis infectious, Grade 3/4 [11, 16]: 1
- Hypoalbuminemia, Grade 3/4 [11, 16]: 1
- Hypophosphatemia, Grade 3/4 [11, 16]: 2
- Lymphocyte count decreased, Grade 3/4 [11, 16]: 2
- Neutrophil count decreased, Grade 3/4 [11, 16]: 2
- Platelet count decreased, Grade 3/4 [11, 16]: 2
- Tumor lysis syndrome, Grade 3/4 [11, 16]: 1
- White blood cell decreased, Grade 3/4 [11, 16]: 2
- Patients requiring dose reductions of PAC due to toxicities ([11]; belinostat + PAC, n=26): 35%
- Patients who discontinued treatment due to adverse events ([11]; belinostat + PAC, n=26): Four
- Patients with QTc prolongation ([11]; belinostat + PAC, n=26, any grade, one grade 3 event): 35%
